Nine compounds from ChEMBL document CHEMBL1201862, “PubChem BioAssay data set” (2004) can be followed below.

The source made the active and inactive calls.

Assay [1] is described as follows: HEK293T cell cytotoxicity, dose response, cytotoxicity control, CellTiter-Glo luminescence, dry powder, set 6 (AID 651949). It counts as functional, cell-based. The conditions noted are these: HEK293. Background: In ATP-based viability assays light output follows the ATP content of the culture.
Assay [2] concerns the target T1, Potassium channel subfamily K member 9 (Homo sapiens, UniProt Q9NPC2). The experiment in a line: TASK3 (KCNK9) channel inhibitors, thallium flux, SAR follow-up, selectivity assay for TASK1 inhibitor project, cell-based, FluxOR thallium flux, concentration-response (AID 652211).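 Also: potency is for inhibitors of the channel.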 It counts as functional.
Assay [3] deals with Potassium channel subfamily K member 3 (Rattus norvegicus, UniProt O54912). The experiment in a line: SAR analysis for the identification of selective inhibitors of the two-pore domain potassium channel TASK1(KCNK3):Automated Electrophysiology. It counts as functional.
Assay [4] concerns the target Potassium voltage-gated channel subfamily KQT member 2 (Rattus norvegicus, UniProt O88943). The experiment in a line: KCNQ2 channel inhibition, SAR follow-up, selectivity assay for TASK1 inhibitor project, cell-based, FluxOR thallium flux, concentration-response (AID 652192). It counts as functional.
In assay [5] the target is Potassium channel subfamily K member 3 (Homo sapiens, UniProt O14649). The experiment in a line: TASK1 (KCNK3) potassium channel inhibitors, SAR follow-up, CHO cells, FluxOR thallium flux (AID 652212). It counts as functional.
For assay [6], the target named is T1, Potassium channel subfamily K member 9. The experiment in a line: KCNK9 (TASK3) current inhibition by patch clamp, SAR follow-up, selectivity assay for TASK1 (KCNK3) inhibitor project, cell-based, automated electrophysiology (AID 652210). It counts as functional.
A short description of assay [7]: Late stage assay provider results from the probe development effort to identify inhibitors of the Plasmodium falciparum M18 Aspartyl Aminopeptidase (M18AAP): radiolabel-based cell-based dose response assay to identify compounds that inhibit P. falciparum growth in RBCs, Set 2.. It counts as functional.
Assay [8] is described as follows: A549 cell cytotoxicity, dose response, cytotoxicity control, cherry-picks, 26 µM top dose (AID 1053119). It counts as functional, cell-based.
A short description of assay [9]: HepG2 cell cytotoxicity, dose response, cytotoxicity control, cherry-picks, set 5 (AID 1053118). It counts as functional, cell-based.
In assay [10] the target is Metabotropic glutamate receptor 5 (Rattus norvegicus, UniProt P31424). The experiment in a line: Identification of a glycine sulfonamide based non-MPEP site positive allosteric potentiator (PAM) of mGlu5 (calcium_assay). It counts as functional.
Assay [11] is described as follows: Luminescence-based cell-based high throughput dose response assay to identify activators of the DAF-12 from the parasite S. stercoralis (ssDAF-12). It counts as functional.
Another assay deals with T2, Protein skinhead-1 (Caenorhabditis elegans, UniProt P34707).
T2 sequence (P34707 whole entry): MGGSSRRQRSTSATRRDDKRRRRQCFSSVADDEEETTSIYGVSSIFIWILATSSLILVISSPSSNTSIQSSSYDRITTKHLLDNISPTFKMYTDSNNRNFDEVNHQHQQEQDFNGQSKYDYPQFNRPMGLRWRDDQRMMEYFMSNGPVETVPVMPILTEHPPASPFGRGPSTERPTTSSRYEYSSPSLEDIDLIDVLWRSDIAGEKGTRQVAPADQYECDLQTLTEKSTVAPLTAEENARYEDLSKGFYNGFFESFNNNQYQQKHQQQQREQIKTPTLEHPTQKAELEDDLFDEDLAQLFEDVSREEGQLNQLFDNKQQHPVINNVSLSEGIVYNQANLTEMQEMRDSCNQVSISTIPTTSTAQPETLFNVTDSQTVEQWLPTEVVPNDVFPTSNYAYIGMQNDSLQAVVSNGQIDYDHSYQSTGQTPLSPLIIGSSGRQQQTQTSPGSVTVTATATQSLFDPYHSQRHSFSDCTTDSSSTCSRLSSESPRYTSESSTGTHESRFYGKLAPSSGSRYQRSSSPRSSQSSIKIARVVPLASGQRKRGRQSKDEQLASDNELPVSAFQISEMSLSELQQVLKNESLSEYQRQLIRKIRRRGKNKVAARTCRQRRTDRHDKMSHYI
It counts as functional.

Assay [12] is described as follows: HepG2 cell cytotoxicity, dose response, cytotoxicity control, ATP luminescence, cherry-pick, activator set 2 (AID 1053143). It counts as functional, cell-based.
The nature of assay [13]: A549 cell cytotoxicity, dose response, cytotoxicity control, plate reader, cherry-pick, antagonist series (AID 743412). It counts as functional, cell-based.
The nature of assay [14]: LGR2 antagonists, dose response, cell-based, HEK293, CRE-luciferase reporter, cherry pick, set 2 (AID 743343).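 Also: transfected cells were stimulated with diluted bursicon conditioned medium after compound addition.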 It counts as functional. Background: A reporter such as luciferase makes a cellular process visible.
Assay [15] in a line: HepG2 cell cytotoxicity, dose response, cytotoxicity control, plate reader, cherry-pick, antagonist series (AID 743416). It counts as functional, cell-based.
Assay [16] is described as follows: MC4R antagonists, dose response, counter-screen for LGR2 antagonist project, cell-based, plate reader, cherry pick (AID 743444).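 Also: transfected HEK 293 cells stimulated with alpha-MSH peptide; potency of inhibitors of the alpha-MSH evoked signal.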 It counts as functional.
In a further assay the target is Caspase-6 (Homo sapiens, UniProt P55212). The experiment in a line: human caspase-6 inhibitors, dose response, biochemical, VEID-R110 fluorescence, cherry-pick (AID 720632).
A short description of assay [17]: cytotoxicity in A549 cells, dose response, cytotoxicity control, cell-based, cherry-picked samples (AID 1053184). It counts as functional.
Assay [18] is described as follows: cytotoxicity in HepG2 cells, dose response, cytotoxicity control, cell-based, cherry-picked samples (AID 1053183). It counts as functional.
Assay [19] is described as follows: cytotoxicity in HEK293 cells, dose response, cytotoxicity control, cell-based, cherry-picked samples (AID 1053185). It counts as functional.
The nature of assay [20]: inhibitors of PGC1a acetylation in cells, dose response, cell-based, cherry-picked samples (AID 720514).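 Also: potency may reflect raised or lowered acetylation signal.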 It counts as functional.
Assay [21] in a line: YAP1 pathway inhibition via CTGF transcript levels, dose response, cell-based, DLD1 colon cancer, RT-qPCR, cherry-pick (AID 1053122). The conditions noted are these: Cancer cell lines. It counts as functional. For orientation: In qPCR the cycle at which signal appears reflects the starting amount.

T1 sequence (Q9NPC2 whole entry, the tested form may be a part): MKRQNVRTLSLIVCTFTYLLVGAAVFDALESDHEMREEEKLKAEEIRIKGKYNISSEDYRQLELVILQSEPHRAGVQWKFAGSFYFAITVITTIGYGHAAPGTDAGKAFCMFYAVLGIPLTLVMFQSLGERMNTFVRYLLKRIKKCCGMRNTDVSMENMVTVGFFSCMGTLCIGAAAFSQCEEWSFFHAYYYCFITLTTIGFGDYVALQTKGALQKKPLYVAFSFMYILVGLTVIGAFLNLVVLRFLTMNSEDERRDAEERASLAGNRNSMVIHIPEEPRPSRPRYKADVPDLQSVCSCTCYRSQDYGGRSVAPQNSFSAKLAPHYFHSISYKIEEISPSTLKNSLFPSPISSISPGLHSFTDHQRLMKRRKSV
Sequence of Potassium channel subfamily K member 3 (Homo sapiens, UniProt O14649) (O14649 whole entry): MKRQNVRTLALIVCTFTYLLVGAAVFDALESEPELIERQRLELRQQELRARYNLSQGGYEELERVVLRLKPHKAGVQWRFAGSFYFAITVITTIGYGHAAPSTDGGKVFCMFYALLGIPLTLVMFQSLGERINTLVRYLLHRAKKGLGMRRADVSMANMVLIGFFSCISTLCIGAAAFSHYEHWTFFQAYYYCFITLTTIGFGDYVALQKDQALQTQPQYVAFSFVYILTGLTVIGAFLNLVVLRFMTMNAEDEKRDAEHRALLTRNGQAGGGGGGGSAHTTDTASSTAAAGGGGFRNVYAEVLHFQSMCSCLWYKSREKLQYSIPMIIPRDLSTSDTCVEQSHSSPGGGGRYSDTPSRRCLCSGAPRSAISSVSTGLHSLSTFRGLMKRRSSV
Sequence of Metabotropic glutamate receptor 5 (P31424 whole entry): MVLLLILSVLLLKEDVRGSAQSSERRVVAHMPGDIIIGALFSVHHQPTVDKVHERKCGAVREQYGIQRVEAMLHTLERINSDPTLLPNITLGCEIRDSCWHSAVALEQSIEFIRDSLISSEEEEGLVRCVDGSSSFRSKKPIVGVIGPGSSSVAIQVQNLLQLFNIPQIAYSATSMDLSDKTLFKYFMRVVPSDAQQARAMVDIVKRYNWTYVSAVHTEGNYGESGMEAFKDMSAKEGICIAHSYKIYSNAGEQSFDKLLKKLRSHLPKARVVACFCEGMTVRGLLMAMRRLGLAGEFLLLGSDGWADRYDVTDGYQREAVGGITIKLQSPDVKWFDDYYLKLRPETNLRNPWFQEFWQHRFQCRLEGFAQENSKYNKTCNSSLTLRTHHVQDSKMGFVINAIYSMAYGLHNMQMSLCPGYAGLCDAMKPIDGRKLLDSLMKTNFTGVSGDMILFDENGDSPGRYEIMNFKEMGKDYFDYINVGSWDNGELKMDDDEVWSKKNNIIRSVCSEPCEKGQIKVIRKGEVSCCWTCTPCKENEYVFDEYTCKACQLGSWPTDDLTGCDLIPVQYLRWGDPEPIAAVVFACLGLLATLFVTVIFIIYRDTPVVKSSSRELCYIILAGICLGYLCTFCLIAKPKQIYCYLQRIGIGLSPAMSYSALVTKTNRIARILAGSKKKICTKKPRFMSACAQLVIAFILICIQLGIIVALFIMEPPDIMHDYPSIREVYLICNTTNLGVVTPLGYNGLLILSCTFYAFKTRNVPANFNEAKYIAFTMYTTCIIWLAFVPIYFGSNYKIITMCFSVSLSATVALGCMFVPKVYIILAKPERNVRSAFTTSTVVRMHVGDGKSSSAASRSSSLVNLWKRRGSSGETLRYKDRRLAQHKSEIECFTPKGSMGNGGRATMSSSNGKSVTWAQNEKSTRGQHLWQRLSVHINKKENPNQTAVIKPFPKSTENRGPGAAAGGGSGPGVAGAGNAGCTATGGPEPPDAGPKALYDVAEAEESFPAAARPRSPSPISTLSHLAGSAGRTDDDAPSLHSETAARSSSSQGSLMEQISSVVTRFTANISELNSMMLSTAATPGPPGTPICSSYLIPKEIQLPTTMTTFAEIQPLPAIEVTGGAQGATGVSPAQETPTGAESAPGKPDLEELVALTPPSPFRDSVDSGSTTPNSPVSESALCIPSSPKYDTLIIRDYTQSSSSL
Sequence of Potassium channel subfamily K member 3 (Rattus norvegicus, UniProt O54912) (O54912 whole entry, the tested form may be a part): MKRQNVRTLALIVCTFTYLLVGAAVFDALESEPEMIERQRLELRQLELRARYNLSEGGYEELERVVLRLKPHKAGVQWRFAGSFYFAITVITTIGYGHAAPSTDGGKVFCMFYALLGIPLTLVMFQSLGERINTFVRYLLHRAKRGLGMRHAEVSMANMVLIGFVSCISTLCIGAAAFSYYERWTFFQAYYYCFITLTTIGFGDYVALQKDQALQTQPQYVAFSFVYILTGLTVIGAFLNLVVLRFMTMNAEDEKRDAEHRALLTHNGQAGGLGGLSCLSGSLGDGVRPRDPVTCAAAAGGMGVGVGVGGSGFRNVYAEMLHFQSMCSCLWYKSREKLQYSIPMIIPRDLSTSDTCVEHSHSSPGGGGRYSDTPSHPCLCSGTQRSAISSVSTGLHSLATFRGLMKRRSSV
Sequence of Potassium voltage-gated channel subfamily KQT member 2 (O88943 whole entry): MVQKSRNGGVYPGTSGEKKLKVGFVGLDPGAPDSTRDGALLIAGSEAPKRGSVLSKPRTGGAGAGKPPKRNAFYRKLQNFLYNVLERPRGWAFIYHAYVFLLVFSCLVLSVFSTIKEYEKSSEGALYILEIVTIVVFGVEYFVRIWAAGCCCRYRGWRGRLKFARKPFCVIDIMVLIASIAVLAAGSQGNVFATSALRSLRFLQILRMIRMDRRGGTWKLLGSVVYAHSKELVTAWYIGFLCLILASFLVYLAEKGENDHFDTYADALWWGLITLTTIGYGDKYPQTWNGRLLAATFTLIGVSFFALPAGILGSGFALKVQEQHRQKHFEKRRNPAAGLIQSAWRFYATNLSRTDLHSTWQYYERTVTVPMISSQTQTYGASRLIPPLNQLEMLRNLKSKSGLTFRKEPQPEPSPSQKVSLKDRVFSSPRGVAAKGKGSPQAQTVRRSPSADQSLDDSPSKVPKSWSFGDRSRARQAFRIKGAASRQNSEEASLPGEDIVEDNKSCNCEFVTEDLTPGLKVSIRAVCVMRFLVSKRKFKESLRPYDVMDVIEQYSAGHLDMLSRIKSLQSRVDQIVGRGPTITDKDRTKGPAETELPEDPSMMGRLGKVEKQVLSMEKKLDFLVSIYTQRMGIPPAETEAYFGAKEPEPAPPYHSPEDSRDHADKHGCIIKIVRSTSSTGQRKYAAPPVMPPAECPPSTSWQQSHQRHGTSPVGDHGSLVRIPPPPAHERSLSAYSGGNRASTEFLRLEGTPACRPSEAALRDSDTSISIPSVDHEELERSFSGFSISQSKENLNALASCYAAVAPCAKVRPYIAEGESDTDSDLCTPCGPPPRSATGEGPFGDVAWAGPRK
Sequence of Caspase-6 (P55212 24-179 limits assumed): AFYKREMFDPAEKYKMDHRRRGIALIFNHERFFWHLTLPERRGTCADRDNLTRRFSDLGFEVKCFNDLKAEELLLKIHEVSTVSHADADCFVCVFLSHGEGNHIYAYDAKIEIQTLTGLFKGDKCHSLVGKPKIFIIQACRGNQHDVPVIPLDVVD
Sequence of Caspase-6 (P55212 194-293 limits assumed): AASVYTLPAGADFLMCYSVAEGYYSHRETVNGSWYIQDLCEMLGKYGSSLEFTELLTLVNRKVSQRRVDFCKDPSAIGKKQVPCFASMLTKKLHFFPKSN

`CS(=O)(=O)c1cccc(-c2nnc(SCc3ccccc3)o2)c1`: the AC50 (commonly the midpoint of the concentration-response curve, whichever way the signal moves) in [1] is > 52 µM (inactive).
With `CCOc1ccccc1C(=O)Nc1cccc(NC(=O)c2cccc(C)c2)c1`, the IC50 – broadly, the concentration at which inhibition is half-maximal – in assay [2] was 0.44 µM (active); in assay [3], 0.011 µM (active); in assay [4], 1.88 µM (active); in [5] it was 0.01 µM (active); in [6], 0.38 µM (active).
Turning to `CCN(CC)Cc1cc(Nc2ccnc3cc(Cl)ccc23)ccc1O`, in assay [7], the IC50 was 0.19 µM (active).
For the compound `O=C(c1cccnc1)N1C[C@@H]2[C@H](c3ccccc31)[C@@H](CO)N2CC1CCCC1`, the AC50 in assay [8] and in [9] was > 52 µM (inactive) each time.
As for `O=C(Nc1cccc(Cl)c1)[C@H]1CCc2ccccc2N1S(=O)(=O)c1cccs1`, the EC50 (in general, the concentration at which the effect is half-maximal) in assay [10] was > 30 µM (inactive).
With `Cc1cc(-c2nc3cc(F)ccc3s2)ccc1N`, the IC50 in [11] is > 67.6 µM (inactive); on Protein skinhead-1, 19.1 µM (active). In addition, the AC50 is 0.55 µM (active) in assay [12]; 21.4 µM (active) in assay [13]; 3.96 µM (active) in [14]; 0.0824 µM (active) in assay [15]; 3.8 µM (active) in assay [16].
For `O=C(OC1CCOC1=O)c1ccc(Cl)c(S(=O)(=O)N2CCOCC2)c1` (stereo not drawn), the AC50 at Caspase-6 is 13.5 µM (active).
`Cc1cccc(-c2ccc([C@@H]3[C@@H]4CN(Cc5cccc(F)c5)C[C@H]3N4)cc2)c1`: the AC50 in [17] is 35.4 µM (active); in [18], 17.7 µM (active); in [19], 27.1 µM (active); in assay [20] it was 20.4 µM (active).
For `CO[C@@H](CN(C)S(=O)(=O)c1ccc(C)cc1)[C@@H](C)CN([C@H](C)CO)S(=O)(=O)c1cccc(Cl)c1`, the AC50 in assay [21] is 18.6 µM (active).
